Measurements published in patent US20250236607A1, “CYCLIN-DEPENDENT KINASE 9 (CDK9) DEGRADERS AND METHODS OF USING THEREOF” (OHIO STATE INNOVATION FOUNDATION, priority 2022, published 2025).
Converted amounts (≈) assume the structure as drawn. Where two headings read alike, the source gives them in different places.

How the values were obtained:
[1] = Chromatographic log D determination (log k′80); format: physicochemical; settings: chromatographic log D, PLRP-S column, pH 7.72
Experimental: Chromatographic Log D Determination. Test samples were prepared from 10 mM stock solutions in DMSO, to make 122 μM solutions in acetonitrile. Retention times were determined on a Shimadzu High Performance Liquid Chromatography (HPLC) system with Agilent PLRP-S column, 100 Å, 5 um particle size, 50×4.6 mm (part no.: PL1512-1500) with 1 mL/min flow rate. A 65 mM aqueous solution of ammonium acetate was prepared in water and diluted with acetonitrile to give 0.1% ammonium acetate 20:80 acetonitrile solution with pH 7.72. Eluents were detected with UV spectrophotometry at 337 nm. As a standard set, the retention times of β-estradiol, nifedipine, quinoline, phenol and 2-nitrophenol were determined (log k′80) and the dead time was extrapolated based on the reported log k′80 values originally reported by Caron et. al (log k′80*). The average value of the dead time for the standard set was 0.3001 minutes. Therefore, for consistency, 0.3 minutes was used as the dead time for all test samples. Experiments were performed in triplicate with a maximum percent standard deviation of 6.85%.

MV411 cells = assay: MTS cytotoxicity assay against MV411 cells; format: cell-based; settings: Homo sapiens, MV4-11
Experimental: (§1) The obtained compounds were tested in biological experiments to measure their potency in inhibiting the growth of AML cells and in their degradation of CDK9. These measurements are reported as half-maximum growth inhibitory and half-maximum degradation concentrations, IC50s and DC50s, respectively. Maximum percent degradation (Dmax) values were also obtained during the CDK9 degradation assessments. The common MTS assay was used to acquire the IC50 values, while the DC50 values were obtained using an automated western blot experiment. These values are presented in Table 2, along with pIC50 (log(nM IC50)) to more accurately reflect the differences/lack thereof in in vitro cytotoxicity. The notation “N:N*” represents the number of linker atoms on each side of the rigid triazole ring for a given degrader. Predicted log D values, calculated using the ChemAxon […], are also provided for each degrader. To characterize the physicochemical properties of the new degrader series, two additional assays were performed: a kinetic aqueous solubility assay and the chromatographic log D experiment described earlier. Aqueous solubility is shown in μM while experimentally determined log D is shown as log k′80. Details regarding the execution of each experiment are provided below.

CDK9 [2] = target: T1, CDK9 (Homo sapiens, UniProt P50750+Q96SW2); assay: CDK9 degradation, automated western blot, triazole-containing AT7519 degraders (MV411); format: cell-based; settings: for DC50: CDK9 degradation, MV411 cells; for Dmax: MV4-11, maximum percent CDK9 degradation
T1 construct: endogenous in cells
T1 sequence (P50750 whole entry): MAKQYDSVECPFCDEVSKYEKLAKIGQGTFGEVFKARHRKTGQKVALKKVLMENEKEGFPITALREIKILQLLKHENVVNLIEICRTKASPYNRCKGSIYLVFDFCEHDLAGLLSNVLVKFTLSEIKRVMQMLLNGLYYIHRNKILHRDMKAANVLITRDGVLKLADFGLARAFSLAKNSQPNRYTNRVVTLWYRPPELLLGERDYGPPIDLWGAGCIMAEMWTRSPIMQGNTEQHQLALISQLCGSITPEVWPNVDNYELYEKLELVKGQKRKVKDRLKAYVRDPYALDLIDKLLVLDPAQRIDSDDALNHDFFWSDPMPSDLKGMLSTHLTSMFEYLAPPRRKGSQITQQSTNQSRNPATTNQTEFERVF
T1 sequence (O60563 whole entry partner): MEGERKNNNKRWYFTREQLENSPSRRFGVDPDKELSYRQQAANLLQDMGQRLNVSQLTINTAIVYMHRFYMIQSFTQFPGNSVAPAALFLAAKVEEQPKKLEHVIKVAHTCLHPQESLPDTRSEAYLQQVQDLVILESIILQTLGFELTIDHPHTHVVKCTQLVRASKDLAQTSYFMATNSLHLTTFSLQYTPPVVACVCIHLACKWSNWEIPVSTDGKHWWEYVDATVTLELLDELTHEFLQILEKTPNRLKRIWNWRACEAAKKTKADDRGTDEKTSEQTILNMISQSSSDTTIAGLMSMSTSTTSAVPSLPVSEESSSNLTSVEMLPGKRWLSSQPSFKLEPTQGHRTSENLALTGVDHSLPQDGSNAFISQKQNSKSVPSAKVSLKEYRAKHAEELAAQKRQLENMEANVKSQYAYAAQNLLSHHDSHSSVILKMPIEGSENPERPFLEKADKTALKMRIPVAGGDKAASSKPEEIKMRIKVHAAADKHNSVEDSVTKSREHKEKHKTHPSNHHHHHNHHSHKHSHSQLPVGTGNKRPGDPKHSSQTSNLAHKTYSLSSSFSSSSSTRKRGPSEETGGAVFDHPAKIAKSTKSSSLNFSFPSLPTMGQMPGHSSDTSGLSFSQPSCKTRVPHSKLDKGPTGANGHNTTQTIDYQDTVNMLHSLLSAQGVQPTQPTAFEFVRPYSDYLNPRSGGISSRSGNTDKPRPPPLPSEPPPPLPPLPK
T1 sequence (Q96SW2 whole entry): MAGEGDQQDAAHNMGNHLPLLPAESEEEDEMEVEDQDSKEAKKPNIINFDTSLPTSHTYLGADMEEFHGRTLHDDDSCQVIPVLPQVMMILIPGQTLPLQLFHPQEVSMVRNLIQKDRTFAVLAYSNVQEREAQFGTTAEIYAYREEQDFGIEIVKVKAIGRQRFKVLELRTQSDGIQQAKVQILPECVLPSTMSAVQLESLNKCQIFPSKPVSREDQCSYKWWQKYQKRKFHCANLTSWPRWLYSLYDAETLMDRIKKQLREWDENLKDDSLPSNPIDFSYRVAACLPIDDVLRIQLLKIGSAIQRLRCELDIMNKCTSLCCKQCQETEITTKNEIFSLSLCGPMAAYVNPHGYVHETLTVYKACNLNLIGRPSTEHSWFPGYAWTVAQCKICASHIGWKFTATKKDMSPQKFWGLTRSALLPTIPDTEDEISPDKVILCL
T1 sequence (Q16531 whole entry partner): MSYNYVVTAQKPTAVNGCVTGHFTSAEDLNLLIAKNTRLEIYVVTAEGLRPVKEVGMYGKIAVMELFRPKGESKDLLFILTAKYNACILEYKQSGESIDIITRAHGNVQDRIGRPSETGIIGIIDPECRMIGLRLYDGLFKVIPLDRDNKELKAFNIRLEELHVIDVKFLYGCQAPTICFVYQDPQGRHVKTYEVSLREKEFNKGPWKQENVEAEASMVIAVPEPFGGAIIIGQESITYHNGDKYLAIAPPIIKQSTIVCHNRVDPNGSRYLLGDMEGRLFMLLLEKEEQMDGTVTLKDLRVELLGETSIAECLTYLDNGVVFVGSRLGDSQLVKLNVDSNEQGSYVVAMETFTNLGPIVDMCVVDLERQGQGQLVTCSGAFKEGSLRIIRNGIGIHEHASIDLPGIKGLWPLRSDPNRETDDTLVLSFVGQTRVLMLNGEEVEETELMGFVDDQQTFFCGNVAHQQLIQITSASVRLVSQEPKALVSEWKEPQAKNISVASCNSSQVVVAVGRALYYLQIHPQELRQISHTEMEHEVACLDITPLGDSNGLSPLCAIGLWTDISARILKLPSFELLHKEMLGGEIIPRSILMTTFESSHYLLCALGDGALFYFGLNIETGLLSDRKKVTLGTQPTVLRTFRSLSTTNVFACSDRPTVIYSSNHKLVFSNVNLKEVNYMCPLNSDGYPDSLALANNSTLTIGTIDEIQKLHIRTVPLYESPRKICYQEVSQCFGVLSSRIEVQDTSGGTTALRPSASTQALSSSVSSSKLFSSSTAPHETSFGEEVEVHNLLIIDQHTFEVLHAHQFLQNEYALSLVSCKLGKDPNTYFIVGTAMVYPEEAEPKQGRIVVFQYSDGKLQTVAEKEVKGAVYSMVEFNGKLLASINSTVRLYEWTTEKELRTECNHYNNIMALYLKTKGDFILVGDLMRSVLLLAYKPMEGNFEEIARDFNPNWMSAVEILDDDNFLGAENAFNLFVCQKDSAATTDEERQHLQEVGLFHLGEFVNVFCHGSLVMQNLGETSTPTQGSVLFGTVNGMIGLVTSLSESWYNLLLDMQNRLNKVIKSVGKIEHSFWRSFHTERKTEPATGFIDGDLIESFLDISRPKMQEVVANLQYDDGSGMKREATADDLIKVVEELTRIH
Experimental: as §1

Kinetic solubility assay = settings: kinetic solubility, PBS pH 7.4; for solubility at 1.5 h: phosphate buffered saline, pH 7.4, aqueous buffer, kinetic from dmso stock, Solubility (μM)
Experimental: Kinetic Solubility Assay. Kinetic solubility (KS) was measured according to Millipore protocol PC2445 EN00. Test compounds were weighed and diluted with DMSO to 10 mM. From the stock solutions as well as blank (100% DMSO) was taken 17.5 μL and diluted to 500 μM with 332.5 μL of 100 mM phosphate Buffered Saline (PPBS) at pH 7.4 in a 96-well quartz plate. From the 500 μM solutions was taken 150 μL and dispensed into a 96-well Millipore filter plate (Product number: MSSLBPC10). In the quartz plate, serial dilutions were performed down to 0.5 μM using the 100 mM PBS solution, leaving 100 μL of each test sample at 11 different concentrations, representing standards. These steps were performed in triplicate, at minimum, for each test compound. Both plates were shaken on an orbital shaker at 150 rpm for 1.5 hours. The contents of the filter plate were filtered and 100 μL of the filtrate from each well was dispensed into the quartz plate containing standards. The quartz plate was then analyzed using a UV plate reader where absorbance was measured at the relevant wavelength for each compound. After blank subtraction, for each test sample, solubility was determined based on the optical density of filtered samples and the equations derived from the corresponding linear standard curve.

CDK9 [3] = target: T1, CDK9; assay: CDK9 degradation potency (DC50) of VIP152-based degraders; format: cell-based; settings: VIP152-based series
Excerpt: (§2) Through amide coupling using I-ethyl-3-carbodiimide hydrochloride (EDC.HCl), the alkynyl derivatives of 4.16, 4.29 and 4.30 were synthesized. Using these VIP152-derivatives, degraders 4.31, 4.33 and 4.34 were synthesized using click chemistry. Degrader 4.32 was also synthesized using amide coupling conditions with (1-[Bis([…])methylene]-1H-1,2,3-triazolo[4,5-b]pyridinium 3-oxide hexafluorophosphate (HATU) and the carboxylic acid 4.28. Scheme 7 illustrates the synthesis of this initial series. The series was evaluated for cytotoxicity against MOLM13 cells (IC50) and for their CDK9 degradation potency (DC50). The results are provided in Table 3.

MOLM13 cells = assay: Cytotoxicity against MOLM13 cells; format: cell-based; settings: MOLM13 cells, read-out: IC50
Excerpt: as §2

[4] = defined as log(nM IC50), MV411, read-out: pIC50 (converted)
[5] = growth inhibition, MV411 cells, MTS, read-out: IC50
[6] = Homo sapiens, MOLM-13, cytotoxicity

Molecule	logk′80 [1]	IC50 (MV411 cells; [4])	IC50 (MV411 cells; [5])	DC50 (CDK9 [2])	Dmax (CDK9 [2])	solubility at 1.5 h (Kinetic solubility assay)	DC50 (CDK9 [3])	IC50 (MOLM13 cells; [6])	IC50 (MOLM13 cells; cytotoxicity)	Solubility (Kinetic solubility assay)
O=C1CCC(N2C(=O)c3cccc(OCCCn4cc(CCCCCCN5CCC(NC(=O)c6n[nH]cc6NC(=O)c6c(Cl)cccc6Cl)CC5)nn4)c3C2=O)C(=O)N1 (centres unmarked) [Compound 4.8c, 4-(2,6-dichlorobenzamido)-N-(1-(6-(1-(3-((2(2,6-dioxopiperidin-3-yl)-1,3-dioxoisoindolin-4-yl)oxy)propyl)-1H-1,2,3-triazol-4-yl)hexyl)piperidin-4-yl)-1H-pyrazole-3-carboxamide]	0.116	79.4 nM	71.3 nM	98.9 nM	75.3%	12.9 µM (≈ 10.9 µg/mL)				
COc1cc(F)ccc1-c1cc(Nc2cc(CS(C)(=O)=NC(=O)CN3CCC(COc4cccc5c4C(=O)N(C4CCC(=O)NC4=O)C5=O)CC3)ccn2)ncc1F (centres unmarked) [Compound 4.79, 2-[4-({[2-(2,6-dioxopiperidin-3-yl)-1,3-dioxo-2,3-dihydro-1H-isoindol-4-yl]oxy}methyl)piperidin-1-yl]-N-{[(2-{[5˜fluoro-4-(4-fluoro-2-methoxyphenyl)pyridin-2-yl]amino}pyridin-4-yl)methyl](methyl)oxo-26-sulfanylidene}acetamide]	0.20					3.1 µM (≈ 2.53 µg/mL)	360 nM	190 nM		
COc1cc(F)ccc1-c1cc(Nc2cc(CS(C)(=O)=NC(=O)CN3CCC(c4cn(C5CN(C(=O)CNc6cccc7c6C(=O)N(C6CCC(=O)NC6=O)C7=O)C5)nn4)CC3)ccn2)ncc1F (centres unmarked) [Compound 4.59, 2-(4-(1-(1-((2-(2,6-dioxopiperidin-3-yl)-1,3-dioxoisoindolin-4-yl)glycyl)azetidin-3-yl)-1H-1,2,3-triazol-4-yl)piperidin-1-yl)-N-(((2-((5-fluoro-4-(4-fluoro-2-methoxyphenyl)pyridin-2-yl)amino)pyridin-4-yl)methyl)(methyl)(oxo)-16-sulfaneylidene)acetamide]	0.09						110 nM		210 nM	5.0 µM (≈ 4.83 µg/mL)
1-((1-(1-((2-(2,6-dioxopiperidin-3-yl)-1,3-dioxoisoindolin-4-yl)glycyl)azetidin-3-yl)-1H-1,2, 3-triazol-4-yl)methyl)-N-(((2-((5-fluoro˜4-(4-fluoro-2-methoxyphenyl)pyridin-2-yl)amino)pyridin-4-yl)methyl)(methyl)(oxo)-16-sulfaneylidene)piperidine-3-carboxamide [Compound 4.63]	0.19						460 nM		550 nM	10.8 µM
COc1cc(F)ccc1-c1cc(Nc2cc(CS(C)(=O)=NC(=O)CN3CCC(c4cn(C5CN(c6cccc7c6C(=O)N(C6CCC(=O)NC6=O)C7=O)C5)nn4)CC3)ccn2)ncc1F (centres unmarked) [Compound 4.60, 2-(4-(1-(1-(2-(2,6-dioxopiperidin-3-yl)-1,3-dioxoisoindolin-4-yl)azetidin-3-yl)-1H-1,2,3-triazol-4-yl)piperidin-1-yl)-N-(((2-((5-fluoro-4-(4-fluoro-2-methoxyphenyl)pyridin-2-yl)amino)pyridin-4-yl)methyl)(methyl)(oxo)-16-sulfaneylidene)acetamide]	0.16						1660 nM		1910 nM	4.1 µM (≈ 3.72 µg/mL)
COc1cc(F)ccc1-c1cc(Nc2cc(CS(C)(=O)=NC(=O)C3CCCN(Cc4cn(CC(=O)N5CCN(CCCc6cccc7c6C(=O)N(C6CCC(=O)NC6=O)C7=O)CC5)nn4)C3)ccn2)ncc1F (centres unmarked) [Compound 4.73, 1-({1-[2-(4-{3-[2-(2,6-dioxopiperidin-3-yl)-1,3-dioxo-2,3-dihydro-1H-isoindol-4-yl]propyl}piperazin-1-yl)-2-oxoethyl]-1H-1,2,3-triazol-4-yl}methyl)-N-{[1 (2-{[5-fluoro-4-(4-fluoro-2-methoxyphenyl)pyridin-2-yl]amino}pyridin-4-yl)methyl](methyl)oxo-λ^6-sulfanylidene}piperidine-3-carboxamide]	0.13					3.5 µM (≈ 3.57 µg/mL)	2630 nM	700 nM		
COc1cc(F)ccc1-c1cc(Nc2cc(CS(C)(=O)=NC(=O)CCc3cn(CC4CCN(C5CN(C(=O)CNc6cccc7c6C(=O)N(C6CCC(=O)NC6=O)C7=O)C5)CC4)nn3)ccn2)ncc1F (centres unmarked) [Compound 4.89, 3-(1-((1-(1-((2-(2,6-dioxopiperidin-3-yl)-1,3-dioxoisoindolin-4-yl)glycyl)azetidin-3-yl)piperidin-4-yl)methyl)-1H-1,2,3-triazol-4-yl)-N-(((2-((5-fluoro-4-(4-fluoro-2-methoxyphenyl)pyridin-2-yl)amino)pyridin-4-yl)methyl)(methyl) (oxo)-26-sulfaneylidene) propanamide]	0.09					1.8 µM (≈ 1.79 µg/mL)	80 nM	170 nM		
COc1cc(F)ccc1-c1cc(Nc2cc(CS(C)(=O)=NC(=O)CCC(=O)N3CC(N4CCC(Cn5cc(CNC(=O)CNc6cccc7c6C(=O)N(C6CCC(=O)NC6=O)C7=O)nn5)CC4)C3)ccn2)ncc1F (centres unmarked) [Compound 4.90, 4-{3-[4-({4-[(2˜ {[2˜ (2,6-dioxopiperidin-3-yl)-1,3-dioxo-2,3-dihydro-1H-isoindol-4-yl]amino}acetamido)methyl]-1H-1,2,3-triazol-1-yl}methyl)piperidin-1-yl]azetidin-1-yl}-N-{[(2-{[5-fluoro-4-(4-fluoro-2-methoxyphenyl)pyridin-2-yl]amino}pyridin-4-yl)methyl](methyl)oxo-λ^6-sulfanylidene}-4-oxobutanamide]	0.07					8.3 µM (≈ 8.72 µg/mL)	900 nM	1380 nM		
O=C1CCC(N2C(=O)c3cccc(OCCCCCCCn4cc(CCCCCCN5CCC(NC(=O)c6n[nH]cc6NC(=O)c6c(Cl)cccc6Cl)CC5)nn4)c3C2=O)C(=O)N1 (centres unmarked) [Compound 4.9a, 4-(2,6-dichlorobenzamido)-N-(1-(6-(1-(7-((2-(2,6-dioxopiperidine-3-yl)-1,3-dioxoisoindolin-4-yl)oxy)heptyl)-1H-1,2,3-triazol-4-yl)hexyl)piperidin-4-yl)-1H-pyrazole-3-carboxamide]	0.184	79.4 nM	72.8 nM	74.6 nM	86.2%	2.38 µM (≈ 2.15 µg/mL)				
COc1cc(F)ccc1-c1cc(Nc2cc(CS(C)(=O)=NC(=O)CN3CCN(Cc4cn(CCCOc5cccc6c5C(=O)N(C5CCC(=O)NC5=O)C6=O)nn4)CC3)ccn2)ncc1F (centres unmarked) [Compound 4.39, 2-(4-((1-(3-((2-(2,6-dioxopiperidin-3-yl)-1,3-dioxoisoindolin-4-yl)oxy)propyl)-1H-1,2,3-triazol-4-yl)methyl)piperazin-1-yl)-N-(((2-((5-fluoro-4-(4-fluoro-2-methoxyphenyl)pyridin-2-yl)amino)pyridin-4-yl)methyl)(methyl)(oxo)-16-sulfaneylidene)acetamide]	0.10					26.5 µM (≈ 24.5 µg/mL)	640 nM	830 nM		
